Experimental data taken from patent publication US4711898A, “4-quinolone derivatives having anti-inflammatory, anti-allergic, antitussive, expectorant and antithrombotic activity” (Nippon Shinyaku Co., Ltd., priority 1982, dated 1987).

Key:
[1] = system: SRS-A (slow reacting substance of anaphylaxis) contraction of ileum; test: Anti-SRS-A action using ileus of guinea pigs; type: cell-based, Hartley strain male guinea pigs; settings: 5 min, guinea pig ileum, SRS-A 20 units, compound five minutes before; for inhibition at 1 µM: Cavia porcellus, 1/1000 mM, read-out: 1/1000 mM SRS-A Inhibition Ratio %; for 1/1000 mM SRS-A Inhibition Ratio %: Na salt, 1 µM
Protocol: (§1) The compounds of the present invention have been evaluated for their anti-allergenic action by passive cutaneous anaphylatic assay (PCA) in rats and by measuring the anti-SRS-A action using ileus of guinea pigs.
Anti-SRS-A action (An anti-acton against slow reacting substance of anaphylaxis).
Hartley strain male guinea pigs (300 to 350 grams body weight) are killed and 1.0 to 1.5 cm of ileum is immeidiately excised from ileocecal parts and is suspended in 10 ml of Tyrode solution (95% 02 -5% CO2 saturation) containing 10^-7 g/ml of atropine and 10^-6 g/ml of pyrilamine. SRS-A (20 units) (the amount of SRS-A showing the same contradiction as 5 ng of histamine is defined as 1 unit) prepared by using sensitized guinea pig lung is given to cause contraction there. Then antagonistic action of test compounds treated five minutes ago against the contraction is measured and recorded via isotonic transducer. [formula] in which A' is a height of contraction of SRS-A+test compound and A is that of SRS-A.

[2] = system: passive cutaneous anaphylaxis (DNP-As homocytotropic antiserum); test: passive cutaneous anaphylatic assay (PCA) in rats; type: in vivo, Wistar strain rats; settings: 10 mg/kg orally, one hour before antigen; for inhibition in vivo at 10 mg/kg: Rattus norvegicus, po, 1 h, read-out: PCA Inhibition Ratio %; for PCA Inhibition Ratio %: Na salt
Protocol: as §1
(i) Antiserum abundant in homocytotropic antibody is prepared by the same method as Tada and Okumura did (cf. Journal of Immunology, vol. 106, page 1002, 1971). Thus, 1 mg (calculated as an amount of protein) of DNP-As (2,4-dinitrophenylcoupled ascaris extract) prepared by methods of Strejan and Campbell (Journal of Immunology, vol. 98, p. 893, 1967) and of Eisen (Journal of Amer. Chem. Soc., vol. 75, p 4593, 1953) and 1×10^10pertussis vaccine are administered to each paw of Wistar strain rats (180 to 200 grams body weights) by dividing the dose by four. Five days later, 0.5 mg of DNP-As is administered into muscle of back. Eight days later from the initial immunization, blood is taken from discending aorta under anesthetizing with ether, the resulting serum is stored at -80° and is melted before use.
(ii) Effect of tested compounds is investigated as follows:
Anti-serum obtained by th method (i) is diluted with physiological saline solution double by double successively and 0.05 ml of each diluted solution is administered into the back of Wistar strain rats (140 to 160 grams body weight) intradermally. After 72 hours, a solution of 2 mg (calculated as protein) of DNP-As and 2.5 mg of Evans Blue dissolved in 1 ml of physiological saline solution is administered intraveously at a dose of 5 ml/kg. After 30 minutes from the antigen solution administration, the animals are killed and the diameters of blue spots which appeared at the place where antiserum was administered were measured. The PCA test is conducted by the same method as already described using a diluted solutions of antiserum which always show 10 mm or more of spot diameters and the effect of the test compounds is judged. Thus antiserum diluted solutions are administered into two places in the back. Test compounds are administered orally at the dose of 10 mg/kg one hour before administration of the antigen solution. From the skin of reacted parts of killed animals, leaked or emitted dyestuff is extracted and the amount of the dyestuff is measured. The inhibition ratio is calculated by the following expression: [formula] in which A' is an amount of dyestuff in the group treated with the test compounds and A is that in the control group.

Structure (SMILES) | inhibition at 1 µM [1] | inhibition in vivo at 10 mg/kg [2] | other results
CCOC(=O)c1cccc2c(=O)cc(-c3ccccc3F)[nH]c12 [2-Fluoro, Ethyl] | 33.3% | 28.5% | –
CCOC(=O)c1cccc2c(=O)cc(-c3ccc(OC)cc3)[nH]c12 [4-Methoxy, Ethyl] | 20.3% | 3.2% | –
O=C(O)c1ccc2c(c1)C(=O)CC(c1ccccc1)=N2 [Example 2, 2-Phenyl-4-quinolone-6-carboxylic acid] | 23.9% | 22.5% | –
O=C(O)c1ccc2[nH]c(-c3ccccc3)cc(=O)c2c1 [Example 3, Sodium 2-phenyl-4-quinolone-6-carboxylate] | 85% | 27.9% | –
CC(C)OC(=O)c1ccc2c(c1)C(=O)CC(c1ccccc1)=N2 [Example 5, Isopropyl 2-phenyl-4-quinolone-6-carboxylate] | 36.7% | 26.2% | –
O=C(OCCc1ccccc1)c1ccc2c(c1)C(=O)CC(c1ccccc1)=N2 [Example 6, Phenethyl 2-phenyl-4-quinolone-6-carboxylate] | 22.8% | 24.3% | –
COC(=O)c1ccc2c(c1)c(=O)cc(-c1ccccc1)n2C [Example 7, Methyl 1-methyl-2-phenyl-4-quinolone-6-carboxylate] | 100% | 21.3% | –
Cn1c(-c2ccccc2)cc(=O)c2cc(C(=O)O)ccc21 [Example 8, 1-Methyl-2-phenyl-4-quinolone-6-carboxylic acid] | 22% | 16.2% | –
COC(=O)c1ccc2c(c1)C(=O)C(C)C(c1ccccc1)=N2 (centres unmarked) [Example 9, Methyl 3-methyl-2-phenyl-4-quinolone-6-carboxylate] | 54.8% | 26.8% | –
Cc1c(-c2ccccc2)[nH]c2ccc(C(=O)O)cc2c1=O [Example 10] | 21% | 22.4% | –
C=CCc1c(-c2ccccc2)[nH]c2ccc(C(=O)OC)cc2c1=O [Example 11] | 37.5% | 20.1% | –
C=CCc1c(-c2ccccc2)[nH]c2ccc(C(=O)O)cc2c1=O [Example 12] | 22.3% | 17.5% | –
CCn1c(-c2ccccc2)cc(=O)c2cc(C(=O)OC)ccc21 [Example 13] | 25.4% | 18.9% | –
CCn1c(-c2ccccc2)cc(=O)c2cc(C(=O)O)ccc21 [Example 14] | 28.9% | 16.4% | –
CCCn1c(-c2ccccc2)cc(=O)c2cc(C(=O)OC)ccc21 [Example 15] | 65.3% | 19.7% | –
CCCn1c(-c2ccccc2)cc(=O)c2cc(C(=O)O)ccc21 [Example 16] | 19.7% | 23.4% | –
C=CCn1c(-c2ccccc2)cc(=O)c2cc(C(=O)OC)ccc21 [Example 17] | 22.7% | 20.4% | –
C=CCn1c(-c2ccccc2)cc(=O)c2cc(C(=O)O)ccc21 [Example 18] | 24.3% | 26.5% | –
CCCCCCn1c(-c2ccccc2)cc(=O)c2cc(C(=O)OC)ccc21 [Example 19] | 27.5% | 27% | –
O=C(O)c1ccc2[nH]c(-c3ccccc3Cl)cc(=O)c2c1 [Example 23] | – | – | 1/1000 mM SRS-A Inhibition Ratio % ([1]; listed as 2-Chloro): 24.9%; PCA Inhibition Ratio % ([2]; listed as 2-Chloro): 18.7%
COC(=O)c1ccc2[nH]c(-c3ccccc3Br)cc(=O)c2c1 [Example 24] | 55.8% | 23.4% | –
O=C(O)c1ccc2[nH]c(-c3ccccc3Br)cc(=O)c2c1 [Example 25] | 25.7% | 17.2% | –
COC(=O)c1ccc2[nH]c(-c3ccccc3F)cc(=O)c2c1 [Example 26] | 38.5% | 20.6% | –

Structure (SMILES) | inhibition at 1 µM [1] | inhibition in vivo at 10 mg/kg [2] | other results
O=C(O)c1ccc2[nH]c(-c3ccccc3F)cc(=O)c2c1 [Example 27] | 23.4% | 25.6% | –
O=C(O)c1ccc2[nH]c(-c3cccc(Cl)c3)cc(=O)c2c1 [Example 30] | 24.5% | 43% | –
O=C(O)c1ccc2[nH]c(-c3cccc(Cl)c3)cc(=O)c2c1 [Example 31] | – | – | 1/1000 mM SRS-A Inhibition Ratio % ([1]; listed as 3-Chloro): 25.5%; PCA Inhibition Ratio % ([2]; listed as 3-Chloro): 24.4%
COC(=O)c1ccc2[nH]c(-c3ccc(Cl)cc3)cc(=O)c2c1 [Example 32] | 20.6% | 24.4% | –
O=C(O)c1ccc2[nH]c(-c3ccc(Cl)cc3)cc(=O)c2c1 [Example 33] | 22.5% | 22.3% | –
COC(=O)c1ccc2[nH]c(-c3ccc(Cl)cc3Cl)cc(=O)c2c1 [Example 34] | 19.3% | 17.4% | –
O=C(O)c1ccc2[nH]c(-c3ccc(Cl)cc3Cl)cc(=O)c2c1 [Example 35] | 25.6% | 39.4% | –
O=C(O)c1ccc2[nH]c(-c3ccc(Cl)cc3Cl)cc(=O)c2c1 [Example 36] | – | – | 1/1000 mM SRS-A Inhibition Ratio % ([1]; listed as 2,4-Dichloro): 14.5%; PCA Inhibition Ratio % ([2]; listed as 2,4-Dichloro): 20.4%
COC(=O)c1ccc2[nH]c(-c3ccc(Cl)c(Cl)c3)cc(=O)c2c1 [Example 37] | 24.3% | 17.1% | –
O=C(O)c1ccc2[nH]c(-c3cc(Cl)ccc3Cl)cc(=O)c2c1 [Example 40] | 27.5% | 25.4% | –
Cc1ccccc1-c1cc(=O)c2cc(C(=O)O)ccc2[nH]1 [Example 43] | – | – | 1/1000 mM SRS-A Inhibition Ratio % ([1]; listed as 2-Methyl): 17.3%; PCA Inhibition Ratio % ([2]; listed as 2-Methyl): 24.8%
CCc1ccccc1-c1cc(=O)c2cc(C(=O)OC)ccc2[nH]1 [Example 44] | 41.3% | 18% | –
CCc1ccccc1-c1cc(=O)c2cc(C(=O)O)ccc2[nH]1 [Example 45] | 25.4% | 24.2% | –
COC(=O)c1ccc2[nH]c(-c3ccc(C)cc3)cc(=O)c2c1 [Example 46] | 19.8% | 27.3% | –
Cc1ccc(-c2cc(=O)c3cc(C(=O)O)ccc3[nH]2)cc1 [Example 47] | 18.9% | 17.3% | –
COC(=O)c1ccc2[nH]c(-c3ccc(C(C)C)cc3)cc(=O)c2c1 [Example 48] | 24.2% | 26.4% | –
CC(C)c1ccc(-c2cc(=O)c3cc(C(=O)O)ccc3[nH]2)cc1 [Example 49] | 18.8% | 25.2% | –
CCCCCc1ccc(-c2cc(=O)c3cc(C(=O)OC)ccc3[nH]2)cc1 [Example 50] | 36% | 19.4% | –
CCCCCc1ccc(-c2cc(=O)c3cc(C(=O)O)ccc3[nH]2)cc1 [Example 51] | 61.4% | 22.7% | –
COC(=O)c1ccc2[nH]c(-c3cccc(C(F)(F)F)c3)cc(=O)c2c1 [Example 52] | 21.3% | 25% | –
O=C(O)c1ccc2[nH]c(-c3cccc(C(F)(F)F)c3)cc(=O)c2c1 [Example 53] | 30% | 22.4% | –
COC(=O)c1ccc2[nH]c(-c3ccc(C)cc3C)cc(=O)c2c1 [Example 54] | 22.4% | 18.9% | –
Cc1ccc(-c2cc(=O)c3cc(C(=O)O)ccc3[nH]2)c(C)c1 [Example 55] | 17.5% | 16.8% | –
